Results as given in ChEMBL document CHEMBL4680222, “Sensitive fluorogenic substrates for sirtuin deacylase inhibitor discovery” (Eur J Med Chem, 2020).
*1 amine or outer side, *2 acyl side, *3 side chain or, on linkers, in order; H or OH if unused. Where a SMILES comes first, the peptide text is derived from it. The star is where a group is joined. AMC = Cc1cc(=O)oc2cc(N*)ccc12; Suc = O=C(CCC(=O)[*:2])[*:1]; Decanoyl = CCCCCCCCCC(=O)*

How the values were obtained:
[1] = molecular target: T1, NAD-dependent protein deacetylase sirtuin-7 (Homo sapiens) (UniProt Q9NRC8); assay: Substrate activity at human N-terminal His-tagged SIRT7 (68 to 354 residues) expressed in Escherichia coli at 0.5 uM measured after 2 hrs in presence of NAD+ and trypsin by fluorescence assay
T1 sequence (whole entry): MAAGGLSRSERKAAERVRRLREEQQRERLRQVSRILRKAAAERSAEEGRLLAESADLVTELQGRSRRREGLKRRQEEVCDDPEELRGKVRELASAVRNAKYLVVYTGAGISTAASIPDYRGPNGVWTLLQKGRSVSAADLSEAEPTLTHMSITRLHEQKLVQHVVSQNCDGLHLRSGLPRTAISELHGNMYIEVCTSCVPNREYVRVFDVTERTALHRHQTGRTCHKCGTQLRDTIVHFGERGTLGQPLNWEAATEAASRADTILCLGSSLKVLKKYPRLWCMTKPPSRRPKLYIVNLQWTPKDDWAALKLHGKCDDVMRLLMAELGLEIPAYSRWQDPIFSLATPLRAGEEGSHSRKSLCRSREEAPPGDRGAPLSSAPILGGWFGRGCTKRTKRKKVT

[2] = molecular target: NAD-dependent protein deacylase sirtuin-6 (Homo sapiens) (UniProt Q8N6T7); assay: Substrate activity at human N-terminal His-tagged SIRT6 (1 to 355 residues) expressed in Escherichia coli at 0.5 uM measured after 2 hrs in presence of NAD+ and trypsin by fluorescence assay
Chain of NAD-dependent protein deacylase sirtuin-6 (Homo sapiens) (Q8N6T7 whole entry, the tested form may be a part): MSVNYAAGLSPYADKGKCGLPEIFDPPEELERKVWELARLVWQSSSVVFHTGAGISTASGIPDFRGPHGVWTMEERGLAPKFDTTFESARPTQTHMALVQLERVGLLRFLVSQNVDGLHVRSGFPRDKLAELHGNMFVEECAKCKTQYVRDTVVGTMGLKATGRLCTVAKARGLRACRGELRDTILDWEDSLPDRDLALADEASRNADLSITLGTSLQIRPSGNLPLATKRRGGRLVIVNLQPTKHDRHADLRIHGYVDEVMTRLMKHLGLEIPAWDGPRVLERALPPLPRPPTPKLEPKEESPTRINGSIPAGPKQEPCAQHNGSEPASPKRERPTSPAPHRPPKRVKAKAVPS

[3] = molecular target: NAD-dependent protein deacylase sirtuin-5, mitochondrial (Homo sapiens) (UniProt Q9NXA8); assay: Substrate activity at human N-terminal His-tagged SIRT5 (34 to 302 residues) expressed in Escherichia coli at 0.5 uM measured after 2 hrs in presence of NAD+ and trypsin by fluorescence assay
Chain of NAD-dependent protein deacylase sirtuin-5, mitochondrial (Homo sapiens) (Q9NXA8 37-310 limits assumed): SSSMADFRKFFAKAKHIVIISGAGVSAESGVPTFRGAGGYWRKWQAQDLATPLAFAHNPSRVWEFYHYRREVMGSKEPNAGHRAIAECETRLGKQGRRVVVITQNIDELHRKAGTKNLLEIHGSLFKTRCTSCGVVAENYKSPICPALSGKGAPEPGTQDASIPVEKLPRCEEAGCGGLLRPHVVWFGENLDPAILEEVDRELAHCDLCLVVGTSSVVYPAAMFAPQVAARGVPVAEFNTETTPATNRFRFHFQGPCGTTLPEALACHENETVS

[4] = molecular target: T2, NAD-dependent protein deacetylase sirtuin-3, mitochondrial (Homo sapiens) (UniProt Q9NTG7); assay: Substrate activity at human N-terminal His-tagged SIRT3 (122 to 391 residues) expressed in Escherichia coli at 0.5 uM measured after 2 hrs in presence of NAD+ and trypsin by fluorescence assay
T2 sequence (whole entry): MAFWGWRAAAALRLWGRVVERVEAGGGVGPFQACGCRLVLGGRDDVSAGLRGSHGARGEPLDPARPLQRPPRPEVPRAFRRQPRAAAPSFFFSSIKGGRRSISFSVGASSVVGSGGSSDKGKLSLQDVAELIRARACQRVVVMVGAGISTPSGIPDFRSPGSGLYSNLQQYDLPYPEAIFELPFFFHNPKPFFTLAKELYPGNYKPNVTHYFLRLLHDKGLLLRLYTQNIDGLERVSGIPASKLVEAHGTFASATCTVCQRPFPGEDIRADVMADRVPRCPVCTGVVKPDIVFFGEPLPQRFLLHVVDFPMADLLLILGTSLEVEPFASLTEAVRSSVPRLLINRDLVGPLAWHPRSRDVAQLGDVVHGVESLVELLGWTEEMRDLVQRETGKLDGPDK

[5] = molecular target: T3, NAD-dependent protein deacetylase sirtuin-2 (Homo sapiens) (UniProt Q8IXJ6); assay: Substrate activity at human N-terminal His-tagged SIRT2 (56 to 356 residues) expressed in Escherichia coli at 0.5 uM measured after 2 hrs in presence of NAD+ and trypsin by fluorescence assay
T3 sequence (whole entry): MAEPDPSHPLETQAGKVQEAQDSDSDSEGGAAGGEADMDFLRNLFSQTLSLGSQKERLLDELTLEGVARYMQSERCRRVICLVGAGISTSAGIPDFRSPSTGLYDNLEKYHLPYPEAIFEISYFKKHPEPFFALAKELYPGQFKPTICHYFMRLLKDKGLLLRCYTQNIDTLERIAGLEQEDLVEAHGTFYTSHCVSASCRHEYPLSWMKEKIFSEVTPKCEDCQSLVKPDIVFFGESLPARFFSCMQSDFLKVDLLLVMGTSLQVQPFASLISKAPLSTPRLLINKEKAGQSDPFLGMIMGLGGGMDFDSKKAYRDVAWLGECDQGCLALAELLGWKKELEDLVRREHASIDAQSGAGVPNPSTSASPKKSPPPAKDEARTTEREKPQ

[6] = molecular target: T4, NAD-dependent protein deacetylase sirtuin-1 (Homo sapiens) (UniProt Q96EB6); assay: Substrate activity at human N-terminal His-tagged SIRT1 (183 to 664 residues) expressed in Escherichia coli at 0.5 uM measured after 2 hrs in presence of NAD+ and trypsin by fluorescence assay
T4 sequence (whole entry): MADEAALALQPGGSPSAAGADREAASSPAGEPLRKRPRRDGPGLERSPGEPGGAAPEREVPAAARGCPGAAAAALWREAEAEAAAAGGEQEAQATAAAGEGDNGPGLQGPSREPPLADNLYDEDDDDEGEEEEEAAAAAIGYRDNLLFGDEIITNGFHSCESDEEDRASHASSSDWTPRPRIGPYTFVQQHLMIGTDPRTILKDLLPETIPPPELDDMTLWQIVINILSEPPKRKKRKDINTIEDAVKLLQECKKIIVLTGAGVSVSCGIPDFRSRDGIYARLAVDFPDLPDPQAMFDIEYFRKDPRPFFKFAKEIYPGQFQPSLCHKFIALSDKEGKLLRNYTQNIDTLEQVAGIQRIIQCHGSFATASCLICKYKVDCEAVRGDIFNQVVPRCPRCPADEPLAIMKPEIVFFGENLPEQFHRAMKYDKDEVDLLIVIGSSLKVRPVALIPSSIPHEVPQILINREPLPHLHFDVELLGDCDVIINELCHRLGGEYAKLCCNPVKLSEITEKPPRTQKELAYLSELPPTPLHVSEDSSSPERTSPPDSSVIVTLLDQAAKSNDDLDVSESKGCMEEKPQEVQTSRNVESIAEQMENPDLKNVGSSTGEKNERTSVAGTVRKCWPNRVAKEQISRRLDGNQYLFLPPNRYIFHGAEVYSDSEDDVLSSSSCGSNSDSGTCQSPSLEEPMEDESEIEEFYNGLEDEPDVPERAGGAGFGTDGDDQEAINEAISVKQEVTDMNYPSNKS

[7] = molecular target: T1, NAD-dependent protein deacetylase sirtuin-7 (Homo sapiens); assay: Substrate activity at human N-terminal His-tagged SIRT7 (68 to 354 residues) expressed in Escherichia coli at 5 uM measured after 2 hrs in presence of NAD+ and trypsin by fluorescence assay
[8] = molecular target: NAD-dependent protein deacylase sirtuin-6 (Homo sapiens) (UniProt Q8N6T7); assay: Substrate activity at human N-terminal His-tagged SIRT6 (1 to 355 residues) expressed in Escherichia coli at 5 uM measured after 2 hrs in presence of NAD+ and trypsin by fluorescence assay
[9] = molecular target: NAD-dependent protein deacylase sirtuin-5, mitochondrial (Homo sapiens) (UniProt Q9NXA8); assay: Substrate activity at human N-terminal His-tagged SIRT5 (34 to 302 residues) expressed in Escherichia coli at 5 uM measured after 2 hrs in presence of NAD+ and trypsin by fluorescence assay
[10] = molecular target: T2, NAD-dependent protein deacetylase sirtuin-3, mitochondrial (Homo sapiens); assay: Substrate activity at human N-terminal His-tagged SIRT3 (122 to 391 residues) expressed in Escherichia coli at 5 uM measured after 2 hrs in presence of NAD+ and trypsin by fluorescence assay
[11] = molecular target: T3, NAD-dependent protein deacetylase sirtuin-2 (Homo sapiens); assay: Substrate activity at human N-terminal His-tagged SIRT2 (56 to 356 residues) expressed in Escherichia coli at 5 uM measured after 2 hrs in presence of NAD+ and trypsin by fluorescence assay
[12] = molecular target: T4, NAD-dependent protein deacetylase sirtuin-1 (Homo sapiens); assay: Substrate activity at human N-terminal His-tagged SIRT1 (183 to 664 residues) expressed in Escherichia coli at 5 uM measured after 2 hrs in presence of NAD+ and trypsin by fluorescence assay
[13] = molecular target: T1, NAD-dependent protein deacetylase sirtuin-7 (Homo sapiens); assay: Substrate activity at human N-terminal His-tagged SIRT7 (68 to 354 residues) expressed in Escherichia coli at 50 uM measured after 2 hrs in presence of NAD+ and trypsin by fluorescence assay
[14] = molecular target: NAD-dependent protein deacylase sirtuin-6 (Homo sapiens) (UniProt Q8N6T7); assay: Substrate activity at human N-terminal His-tagged SIRT6 (1 to 355 residues) expressed in Escherichia coli at 50 uM measured after 2 hrs in presence of NAD+ and trypsin by fluorescence assay
[15] = molecular target: NAD-dependent protein deacylase sirtuin-5, mitochondrial (Homo sapiens) (UniProt Q9NXA8); assay: Substrate activity at human N-terminal His-tagged SIRT5 (34 to 302 residues) expressed in Escherichia coli at 50 uM measured after 2 hrs in presence of NAD+ and trypsin by fluorescence assay
[16] = molecular target: T2, NAD-dependent protein deacetylase sirtuin-3, mitochondrial (Homo sapiens); assay: Substrate activity at human N-terminal His-tagged SIRT3 (122 to 391 residues) expressed in Escherichia coli at 50 uM measured after 2 hrs in presence of NAD+ and trypsin by fluorescence assay
[17] = molecular target: T3, NAD-dependent protein deacetylase sirtuin-2 (Homo sapiens); assay: Substrate activity at human N-terminal His-tagged SIRT2 (56 to 356 residues) expressed in Escherichia coli at 50 uM measured after 2 hrs in presence of NAD+ and trypsin by fluorescence assay
[18] = molecular target: T4, NAD-dependent protein deacetylase sirtuin-1 (Homo sapiens); assay: Substrate activity at human N-terminal His-tagged SIRT1 (183 to 664 residues) expressed in Escherichia coli at 50 uM measured after 2 hrs in presence of NAD+ and trypsin by fluorescence assay

| SMILES | Activity [1] | Activity [2] | Activity [3] | Activity [4] | Activity [5] | Activity [6] | Activity [7] | Activity [8] | Activity [9] | Activity [10] | Activity [11] | Activity [12] | Activity [13] | Activity [14] | Activity [15] | Activity [16] | Activity [17] | Activity [18] |
| --- | --- | --- | --- | --- | --- | --- | --- | --- | --- | --- | --- | --- | --- | --- | --- | --- | --- | --- |
| CCCCCCCCCC(=O)NCCCC[C@H](NC(=O)[C@H](CCC(N)=O)NC(=O)[C@@H](NC(=O)[C@H](CCCCN)NC(C)=O)C(C)C)C(=O)Nc1ccc2c(C)cc(=O)oc2c1 (Ac-KVQK(Decanoyl)-{AMC}) | 0.6 RFU | 0.46 RFU | 0.28 RFU | 0.51 RFU | 1.68 RFU | 1.68 RFU | 0.44 RFU | 0.74 RFU | 0.24 RFU | 0.73 RFU | 1.72 RFU | 0.74 RFU | 1.09 RFU | 1.09 RFU | 0.78 RFU | 0.85 RFU | 3.19 RFU | 1.1 RFU |
| CC(=O)NCCCC[C@H](NC(=O)[C@H](CC(C)C)NC(=O)[C@H](CCCCN)NC(=O)[C@H](Cc1ccc(O)cc1)NC(C)=O)C(=O)Nc1ccc2c(C)cc(=O)oc2c1 (Ac-YKLK(Ac)-{AMC}) | 0.31 RFU | 0.5 RFU | 0.24 RFU | 0.54 RFU | 0.52 RFU | 0.52 RFU | 1.09 RFU | 0.39 RFU | 0.31 RFU | 2.28 RFU | 3.84 RFU | 6.39 RFU | 0.97 RFU | 0.97 RFU | 1.29 RFU | 9.82 RFU | 25.2 RFU | 33 RFU |
| CCCCCCCCCC(=O)NCCCC[C@H](NC(=O)[C@H](CCCNC(=N)N)NC(=O)[C@H](C)NC(=O)[C@@H](NC(C)=O)[C@@H](C)O)C(=O)Nc1ccc2c(C)cc(=O)oc2c1 (Ac-TARK(Decanoyl)-{AMC}) | 0.35 RFU | 0.48 RFU | 0.26 RFU | 0.26 RFU | 0.25 RFU | 0.25 RFU | 0.35 RFU | 0.38 RFU | 0.28 RFU | 0.4 RFU | 0.65 RFU | 0.46 RFU | 0.79 RFU | 0.79 RFU | 1.38 RFU | 1.08 RFU | 1.94 RFU | 1.43 RFU |
| CC[C@H](C)[C@H](NC(C)=O)C(=O)N[C@@H](CCCNC(=N)N)C(=O)N[C@H](C(=O)N[C@@H](CCCCNC(=O)CCC(=O)O)C(=O)Nc1ccc2c(C)cc(=O)oc2c1)[C@@H](C)CC (Ac-IRIK(Suc)-{AMC}) | 0.29 RFU | 0.4 RFU | 0.32 RFU | 0.49 RFU | 0.21 RFU | 0.21 RFU | 0.34 RFU | 0.44 RFU | 0.82 RFU | 0.64 RFU | 0.33 RFU | 0.55 RFU | 1.89 RFU | 1.89 RFU | 2.63 RFU | 2.47 RFU | 1.03 RFU | 2.05 RFU |
| CC(=O)NCCCC[C@H](NC(=O)[C@H](CO)NC(=O)[C@H](Cc1ccccc1)NC(=O)[C@H](CC(=O)O)NC(C)=O)C(=O)Nc1ccc2c(C)cc(=O)oc2c1 (Ac-DFSK(Ac)-{AMC}) | 0.39 RFU | 0.48 RFU | 0.26 RFU | 0.32 RFU | 0.31 RFU | 0.31 RFU | 0.65 RFU | 0.36 RFU | 0.29 RFU | 1.29 RFU | 1.13 RFU | 3.38 RFU | 0.58 RFU | 0.58 RFU | 0.81 RFU | 7.07 RFU | 6.75 RFU | 21.2 RFU |
